Measurements from a melting point compilation (Tetko et al.; mined from patent text by program, amines drawn as free bases though some values may be those of a salt).
Residues, ends and D or L forms follow the SMILES beside them. *: point of attachment. Boc = CC(C)(C)OC(=O)*; NHNH2 = NN*

Row | Compound | melting point [°C]
1 | Cn1c(COc2ccc(Cn3cc(CCC(=O)O)c(-c4ccccc4)n3)cc2)nc2ccccc21 | 225 to 226
2 | O=C(O)Cc1nn(CC(=S)Nc2cc(C(F)(F)F)ccc2Br)c(=O)c2ccccc12 | 176 to 177
3 | CCc1cnn(CC(=O)O)c1OCCCc1cn(-c2ccc(C(F)(F)F)cn2)nc1C(CC)CC | 124 to 125
4 | O=C1OCC(c2ccc([N+](=O)[O-])cc2)C1CSCc1ccccc1 (configuration not stated) | 90 to 91
5 | COc1cn(-c2ccc(-n3cccn3)cc2F)nc(-c2ccnn2-c2ccccc2)c1=O | 214 to 216
6 | c1ccc(OCc2ccc3ccccc3n2)cc1 | 79.5 to 80.5
7 | CON=C1CN(c2c(F)cc3c(=O)c(C(=O)O)cn(C4CC4)c3c2OC)CC12CC2 | 219 to 221
8 | COc1ccc(CCN2CCC(C(O)c3ccc(NS(C)(=O)=O)cc3)CC2)cc1 (configuration not stated) | 40 to 48
9 | Cc1cc2n(c1)Cc1cc(Cl)ccc1N=C2N1CCN(CC(C)(C)C(=O)O)CC1 | 246
10 | CCOc1cc2c(cc1OC)C(c1ccc(C(=O)N(C(C)C)[C@@H](C)CO)cc1)=N[C@@H]1CCN(C)C[C@H]21 | 104 to 112
11 | S=P1(c2ccccc2)CCCC1 | 74
12 | C[C@]12CC[C@H](O)CC1=CCC1C2CC[C@@]2(C)C1CC[C@H]2n1cc(-c2ccccc2)nn1 (some centres not stated) | 234 to 236
13 | N#Cc1cccc(NC(=O)NC2N=C(CN3CCOCC3)c3ccccc3NC2=O)c1 (configuration not stated) | 249 to 250
14 | Nc1cc(N2CCCCC2)c(F)cc1[N+](=O)[O-] | 112 to 113
15 | CC(=O)CC(=O)Nc1cccc(OCc2ccccc2)c1 | 80
16 | CCOC(=O)c1cnc2ccc(OC)nc2c1Nc1ccc(OC)cc1 | 115 to 117
17 | CC[C@@H](c1ccccc1)N(Cc1cccc(C(=O)O)c1)S(=O)(=O)c1ccc(Cl)cc1 | 65 to 67
18 | OC1Cc2c(I)cccc2CC1N1CCC(c2ccccc2)CC1 (configuration not stated) | 194
19 | Fc1cc(CC2(Cc3ccnc(F)c3)c3cccnc3-c3cccnc32)ccn1 | 134 to 135
20 | CC(CN1CCN(c2cccc(C(F)(F)F)c2)CC1)C(O)c1ccc2c(c1)oc(=O)n2C (configuration not stated) | 92
21 | COc1cc2c(cn1)CC(CC(=O)O)C=C2 (configuration not stated) | 151 to 152

Row | Compound | melting point [°C]
22 | N#CN1c2ccccc2CC(O)c2ccccc21 (configuration not stated) | 117 to 118
23 | Cc1c(NC(=O)CC(C)(C)C)c(C)c2c(-c3ccc(C(C)C)cc3)coc2c1C | 229 to 230
24 | CC(C)CCN1C(=O)C(NC(=O)Oc2cccc(N(C)C)c2)C(=O)N(c2ccccc2)c2cc(F)ccc21 (configuration not stated) | 229 to 230
25 | CC(C)CC1(C(N)C(=O)OC(C)(C)C)CCN(CCc2ccccc2)C1=O (configuration not stated) | 111 to 113
26 | Cc1cc2c(c3c1NC(=O)CC3)OC(CO)C2 (configuration not stated) | 172 to 173
27 | Cc1cc(C(=O)C(F)(F)F)ccc1NC(=O)OC(C)(C)C | 85 to 87
28 | CNC1=NN(C(=O)c2ccccc2C(F)(F)F)C(C)(C)S1 | 164 to 169
29 | CCCC(CC)(C(=O)N(C)C)n1cc(C)c(-c2ccccc2)n1 (configuration not stated) | 147 to 148
30 | Cn1c(=O)c2ccc(N)nc2n(C)c1=O | 290 to 295
31 | CCOC(=O)CNC(=O)COc1c(F)cc(CSCCNS(=O)(=O)c2ccc(Cl)cc2)cc1F | 88.5 to 89.5
32 | CCCc1nc2c(N)nc3cc(OCc4ccccc4Cl)ccc3c2n1CC(C)C | 216 to 218
33 | ON=C1CN2CCC1CC2 | 117 to 119
34 | CC1(C)C(=O)C(c2ccccc2)=C1c1ccc(S(N)(=O)=O)cc1 | 142 to 144
35 | N=C(N)Nc1ccc(CCC(=O)O)cc1 | > 300
36 | CCOCn1c(C(=O)c2cc(C)cc(C)c2)c(C(C)C)c(=O)[nH]c1=O | 120 to 122
37 | NC1(C(F)F)CCCNC1=O (configuration not stated) | 149
38 | CCS(=O)(=O)c1ccc(-c2coc3ccc(-c4nnc(C)o4)cc23)cc1F | 200 to 201
39 | Cc1nnsc1C(=O)Nc1ccc(-n2nc(C(F)(F)F)c(Cl)c2C2CC2)c(F)c1 | 143 to 147
40 | O=C(O)C1=CC2=CCCC=C2Sc2c1ccc1c2CCC1 | 77
41 | COc1cnn(-c2cc(Cl)cc(Cl)c2)c(=O)n1 | 164

Results, then the compound that gave them:

Row | melting point [°C] | Compound
42 | 232 to 237 | c1ccc2c(c1)Cn1cnnc1CN2
43 | 184 to 185 | O=C(OCC12CCCN(CC1)C2)c1c[nH]c2ccccc12 (configuration not stated)
44 | 204 | Cc1cc(C#N)cc(C(=O)Nc2ccc(F)cn2)n1
45 | 185 to 190 | CCOC1=NS(=O)(=O)c2cc(I)ccc21
46 | 157 to 158 | N#CC(C#N)=NC1=C(N2CCOCC2)CCC1
47 | 235 to 236 | Cc1c(Br)cc(C(C)(C)C)c(O)c1-c1nc2cc(OC(F)(F)F)ccc2[nH]1
48 | 65 to 68 | O=C(NN1CCCCC1)c1cc(Oc2c(F)cc(C(F)(F)F)cc2Cl)ccc1[N+](=O)[O-]
49 | 157 to 158 | O=C(NC1CC1)c1cccc(-c2cccn3c(=O)n(Cc4cccc(C(F)(F)F)c4)nc23)c1
50 | 168 | CCCN1CCC=C(c2cccc3[nH]ccc23)C1
51 | 76 to 77 | C=C(CC(Cl)(Cl)Cl)c1cnc(Cl)c(Cl)c1
52 | 69 to 71 | Cc1cc(Oc2ncc(C(F)(F)F)cc2Cl)nn1C(=O)NC1CCCCC1
53 | 72 to 73 | CCCCCCOc1ccc(O)c2cc(C)c(C)cc12
54 | 170 to 171 | OCc1c(CO)c(-c2ccc(Cl)cc2)n2c1Cc1ccccc1C2
55 | 228 to 234 | CC(=O)c1ccc2nc(N)[nH]c2c1
56 | > 300 | Cc1cc(O)n2nc(S(=O)(=O)O)nc2n1
57 | 59 to 61 | CCCCCCCCCCCCCCCCCCSC(C)(C)C(=O)CC(=O)Nc1ccccc1OC
58 | 112 to 113 | CCSc1ccc(C(=O)O)nc1SCC
59 | 218 to 220 | CCOC(=O)c1csc(NC(=O)c2cc(OC)c(OC)cc2O)n1
60 | 245 to 250 | CCOC(=O)Cc1c[nH]c2cc(-c3ccccc3)nn2c1=O
61 | 194 to 197 | Cc1c(C(=O)NCc2ccc3c(Br)c(OCC#N)ccc3c2)oc2ccccc12
62 | 220 to 221 | CCOCc1nc2c(N)nc3cc(-c4ccncc4)ccc3c2n1CC(C)(C)O

Row | melting point [°C] | Compound
63 | 103 to 104 | CCSc1cc(C#N)c(Cl)cn1
64 | 218 | COc1cccc2c1N(S(=O)(=O)c1ccc(-c3ccc(F)cc3F)cc1)C(C(=O)NCc1ccc(C(=O)O)cc1)C2 (configuration not stated)
65 | 97 to 101 | CCCN1CCN(CCCOc2cc3ncc(C#N)c(Nc4cc(OC)c(Cl)cc4Cl)c3cc2OC)CC1
66 | 57 to 59 | CN(C)C(=O)C(C)(C)c1ccccc1
67 | 187 to 189 | COc1ccc(/C=C(/C(=O)O)c2cc(OC)c(OC)c(OC)c2)cc1
68 | 170 to 172 | O=C(O)Cn1c(=O)c2ccccc2n(CCCN2CCC(OC(c3ccccc3)c3ccccc3)CC2)c1=O
69 | 190 to 191 | CN(C)C(=O)NCCc1cccc(-c2nc(=O)c3ccccc3s2)n1
70 | 56 to 59 | C#CCN(C(=O)OC(C)(C)C)C1CCc2ccc([N+](=O)[O-])cc21 (configuration not stated)
71 | 114 to 118 | COC(=O)c1cc(N)nn1C
72 | 180 to 182 | Cc1cc(F)cc(-c2ccc3c(c2)C2(CCCCC2)C(=O)N3)c1
73 | 88 to 90.5 | CONS(=O)(=O)c1ccc(Cl)c(C(F)(F)F)c1
74 | 157 to 158 | CCc1c(Sc2cc(C)cc(C)c2)n(C/C=C/CO)c(=O)[nH]c1=O
75 | 156 to 157 | CCCOc1ccc(/C=C/C(=O)N2CCOCC2)cc1-c1nc2c(c(C)nn2CCC)c(=O)[nH]1
76 | 182 to 188 | Cn1ccc2cc(N3Cc4ccc(OCC(F)(F)F)cc4C3=O)ccc21
77 | 173 to 175 | COC(=O)c1ccc(COc2ccc3cc(-c4csc(-c5ccccc5)n4)ccc3c2Br)cc1
78 | 153 to 156 | O=C1NCCC[C@@H]1NS(=O)(=O)c1ccc(F)cc1
79 | 78 to 79 | CCCCCCOc1ccc2cc(OCCCCCC)ccc2c1
80 | 64 | COC(=O)CCC#Cc1cc(Cl)ccc1NS(=O)(=O)c1cccc(Cl)c1Cl
81 | 126 to 128 | Cc1c(C)c2c(c(C)c1N)CC(C)(CN1CCC(c3ccncc3)CC1)O2 (configuration not stated)
82 | 116 to 117 | COc1cc2c(cc1OCc1ccccc1)CCN(Cc1cc(F)cc(F)c1)C2
83 | 138 to 139 | CCCCc1ccc(CN(CCC(C)(C)C)C(=O)Nc2c(C)cc(Cl)cc2C)cc1

Row | melting point [°C] | Compound
84 | 141 to 142 | COc1ccc2c(C)c([N+](=O)[O-])ccc2c1C(F)(F)F
85 | 74 to 75 | CN(Cc1cccs1)C(=O)C1CC2C=CC1C2 (configuration not stated)
86 | 129 to 131 | Nc1cc(C(=O)CCCCCl)cc2c1OCC2
87 | 206 to 207 | CSCCC(NC(=O)C(CCCCNC(=O)OC(C)(C)C)NC(=O)C(Cc1ccc(O)cc1)NC(=O)C1CCCN1)C(=O)NN (configuration not stated) (H-PYK(Boc)M-NHNH2; configuration not given here)
88 | 41 to 44 | Cn1cc(-c2ccccc2[N+](=O)[O-])cn1
89 | 246 to 248 | CN1C(=O)C(=NO)C(=NCCCCCC(=O)O)N(C)C1=O
90 | 109 to 111 | CCS(=O)(=O)N[C@H](C(=O)NCCc1cc(Br)c(OCC#Cc2ccc(Cl)cc2)c(OC)c1)C(C)C
91 | 70 to 73 | CCCCNS(=O)(=O)CC(=O)[C@@H]1OC(C)(C)N(C(=O)OC(C)(C)C)[C@H]1CC1CCCCC1
92 | 85 | CCCCCCCCOC(=O)c1nc(Cl)c(Cl)nc1N
93 | 102 to 103 | Cc1[nH]nc(Oc2ncc(C(F)(F)F)cc2Cl)c1C
94 | 241 to 243 | CCc1ccc(-c2ccc3c(c2)C=C(C(=O)O)CCO3)cc1
95 | 281 to 282 | COc1cc(OC)c2c(=O)[nH]c(-c3cccc(-c4ccc(S(C)=O)cc4)n3)nc2c1 (configuration not stated)
96 | 139 | CON(C(=O)Cc1nc2ccc(Cl)cc2o1)c1ccccc1
97 | 140 to 141 | O=C(NCCO)c1cccc(-c2cccc3cc(Cc4cccc(C(F)(F)F)c4)oc23)c1
98 | 185 to 187 | O=C(O)CC(O)(Cn1cncn1)c1ccc(F)cc1F (configuration not stated)
99 | 67 to 69 | CCCCC(Cn1cnc([N+](=O)[O-])c1)c1ccc(Cl)cc1Cl (configuration not stated)
100 | 53 to 55 | O=C(O)CC(O)c1ccc(-c2ccccc2Cl)o1 (configuration not stated)
101 | 302 to 303 | O=C1CCCc2[nH]c(=O)ccc21
102 | 48 to 53 | COC(=O)C1OC(c2cc(-c3ncc(C(F)(F)F)cc3Cl)ccc2Cl)OC1C(=O)OC (configuration not stated)
